From publication PMC10568017, “A quest for the stereo-electronic requirements for selective agonism for the neurotrophin receptors TrkA and TrkB in 17-spirocyclic-dehydroepiandrosterone derivatives” (Frontiers in Molecular Neuroscience, 2023)

Key:
[1] = murine models; ref Bennett et al., 2016; Tsika et al., 2021; cited from earlier work
CYP2C9 = biological target: T1, CYP2C9 (Homo sapiens, UniProt P11712); assay: Isozyme-specific CYP450 inhibition, CYP2C9; assay type: in vitro ADME; conditions: 1 μM, 60 min, recombinant human CYP450 (Baculosomes)
T1 construct: purchased Thermo Fisher Scientific; host or cells: Baculosomes
Experimental: Human cytochrome P450 (CYP450) isoenzymes were expressed in Baculosomes®, purchased from Thermo Fisher Scientific (Waltham, MA, USA). All reagents were handled and prepared according to the manufacturer's protocol. Test compounds were assessed at 1 μM for their effects on CYP1A2, CYP2A6, CYP2C9, CYP2C19, CYP2D6, and CYP3A4. Approximately 1 μM was selected based on our ADMET standard operating procedures and protocols also published previously (Rogdakis et al., [2022]; Yilmaz et al., [2022]). CYP450-enzymatic activity was determined based on the kinetic model for each CYP450 isoform (Cohen et al., [2003]; Veith et al., [2009]). Reactions took place in triplicates at 20°C. For this, NADP^+ (10 mM in 100 mM potassium phosphate, pH 8.0) was converted into NADPH by the regeneration system present (glucose-6-phosphate at 333 mM and glucose-6-phosphate-dehydrogenase at 30 U/mL in 100 mM potassium phosphate, pH 8.0). Following the addition of the fluorescent substrate, signal monitoring over time took place immediately (<2 min) at suitable excitation and emission wavelengths (Agilent BioTek Lionheart FX). CYP450 inhibition (%) was determined based on the reaction rates (fluorescence intensity changes per unit time). In total, n = 60 measurements […] were acquired (t = 60 min).
% Inhibition=(1-X/A)×100%
X is the rate observed in the presence of the test compound.
A is the rate observed in the presence of the negative (solvent, DMSO) control.

[2] = tested on: NIH-3T3 TrkB-expressing cell line; assay: CellTox Green cytotoxicity assay in NIH-3T3 cells stable transfected with TrkB under serum deprivation; assay type: cell-based; conditions: compound 1 μM, 24 h, after 24 h serum starvation; BDNF 500 ng/mL as control
Experimental: (§1) We tested compounds on three cellular systems, primary cortical astrocytes from 2-day-old mice (as a natively TrkB-expressing neuronal population), and NIH-3T3 fibroblasts stable transfected with TrkB and NIH-3T3 naïve cells. Cells were grown with high-glucose DMEM medium supplemented with 10% fetal bovine serum (FBS), 100 μg/mL streptomycin, and 100 units/mL penicillin at 37°C in a humidified 5% CO2 atmosphere. Phosphorylation results presented here are in primary astrocytes, and cell toxicity assay results are in NIH-3T3 stable transfected cells with TrkB.
NIH-3T3 stable transfected cells with TrkB were plated in 96-well plates at a density of 10,000 cells/well, before carrying out serum starvation for 24 h. Cells were then treated for 24 h with either BDNF at 500 ng/mL (control) or the compounds at 1 μM.
For the cell toxicity assay, we used CellTox™ Green Dye (2,000 × , Promega) for the visualization of dead cells and Hoechst 33,342 solution (10,000 × ) for total cells. A ZEISS Axio Vert.A1 microscope was used for image capture, and the ImageJ software (https://imagej.nih.gov/ij/) was used for analysis. The number of CellTox positive cells was normalized against the total number of cells observed in each image.
The NIH-3T3 TrkB cell line, which is stable and transfected to specifically express the TrkB receptor, was used for the screening of the new compounds for their ability to protect cells from serum deprivation-induced apoptosis through the activation of the TrkB receptor. Cell death was induced by serum deprivation for 24 h and then BDNF (500 ng/mL), the native neurotrophin ligand of the TrkB receptor, or compounds ENT-A007, ENT-A009, ENTA025, ENT-A026, ENT-A033, ENT-A034, ENT-A035, ENT-A036, ENT-A037, ENT-A046, ENT-A047, ENT-A055, and ENT-A056 (1 μM) were added to the media for 24 h.

TrkB = biological target: T2, TrkB (Mus musculus, UniProt P15209); assay: TrkB phosphorylation assay in primary astrocytes (Western blot); assay type: cell-based; conditions: compound 1 μM, 20 min, after 6 h serum starvation, BDNF 500 ng/mL as control
T2 construct: primary cortical astrocytes from 2-day-old mice (as a natively TrkB-expressing neuronal population); endogenous in cells; host or cells: primary cortical astrocytes from C57B/6 mouse pups (P2)
Experimental: as §1
Cells were plated in 12 well plates, at a density of 100,000 cells per well, with 6 h of serum deprivation carried out on the following day. To assess the effect of compounds on TrkB phosphorylation, 20-min treatments were applied, using either BDNF at 500 ng/mL (Peprotech 450-02) (positive control) or compounds at 1 μM.
Cell lysis for 10 min was carried out on ice using the Pierce IP Lysis Buffer by Thermo Scientific and a phospho-protease inhibitor cocktail by Millipore. After adding loading buffer (5 × Laemni), 25 μg from each protein sample were incubated for 5 min at 95°C and subjected to SDS-PAGE. Proteins were transferred to a nitrocellulose membrane at 350 mA for 2 h. Membrane blocking was performed using 5% bovine serum albumin (BSA) at room temperature for 1 h, before adding the primary antibodies to the blocking solution at 4°C overnight. HRP-conjugated secondary antibodies were used for the detection of chemiluminescence with ECL solution. Primary antibodies: Phospho-TrkB (Tyr816) Millipore # ABN1381, and Anti-TrkB Abcam #ab33655.
Mixed glial cultures were isolated from the cortex of C57B/6 pups at post-natal day 2 (P2). Cells were plated in a medium containing high-glucose DMEM, 200 U/mL penicillin, 200 μg/mL streptomycin, and 10% fetal bovine serum (FBS). When cells reach 100% confluency (7–8 days), the anti-mitotic agent Ara-C was added in the media at a final concentration of 10 μM, for 3 to 4 days to target the highly proliferative microglial cells. Ara-C was removed, and primary astrocytes (97% purity) were cultured at 5% CO2 and 37°C.
Cells were plated at 70–80% confluency. The next day, they were deprived of serum for 6 h and subsequently treated with 500 ng/mL BDNF or 1 μM of compounds for 20 min. Cells were then lysed in Pierce™ IP Lysis Buffer (87788, Thermo Fischer Scientific, Rockford, USA), containing proteases (539138, Calbiochem, Darmstadt, Germany), and phosphatase inhibitors (524629, Calbiochem, Darmstadt, Germany). Lysates were then suspended in an SDS loading buffer and subjected to Western blot against phosphorylated TrkB (1:1,000, ABN1381, Sigma-Aldrich, St. Louis, MO, USA) and total TrkB (1:1,000, 07-225-I, Sigma-Aldrich, St. Louis, MO, USA).

[3] = Metabolic stability in pooled human liver microsomes; assay type: in vitro ADME; conditions: 1 μM
Experimental: For metabolic stability assessment, pooled human liver microsomes were employed at 0.5 mg/mL. Incubation conditions were optimized to ensure linear metabolite formation with respect to protein concentration and reaction time. All test compounds were assessed at 1 μM based on our ADMET standard operating procedures and protocols, also published previously (1 μM was selected based on our ADMET standard operating procedures and protocols also published previously) (Rogdakis et al., [2022]; Yilmaz et al., [2022]). Approximately 1 mM of NADPH served as a cofactor. Reactions took place in triplicates at 37°C. Negative and positive controls (low vs. rapid clearance) were included for low vs. rapid clearance. After 60 min, reactions were terminated.
Parent structure loss is classified as very slow (<5%), slow (5–19%), moderate (20–50%), fast (50–80%), or very fast (>80%). Such categories have been defined according to set criteria, namely, high metabolism (t1/2 value of <30 min), moderate metabolism (30 min <t1/2 value of <60 min), and low metabolism (t1/2 value of >60 min) (EMA, [2012], [2013]; FDA, [2020]).

TrkA = biological target: T3, TrkA (Rattus norvegicus, UniProt P35739); assay: TrkA phosphorylation in PC12 cells (immunoprecipitation / Western blot); assay type: cell-based; conditions: compound 500 nM, 30 min, NGF 100 ng/mL as control
T3 construct: PC12 cells, which express receptors TrkA and p75; endogenous in cells; host or cells: PC12 cells
Experimental: (§2) PC12 cells were obtained from LGC Promochem and cultured under specified conditions. Cells were grown in DMEM medium (Thermo Fischer Scientific, cat# 10566016) containing 10% horse serum (Thermo Fischer Scientific, cat# 16050122), 5% fetal bovine serum (Thermo Fischer Scientific, cat# 10270106), 100 units/mL penicillin, and 0.1 mg/mL streptomycin (Thermo Fischer Scientific, cat# 15140122) at 5% CO2 and 37°C. Cells were used between passages 5 and 20.
For immunoprecipitation experiments, PC12 cells were used when they were at 70–80% confluent. Cells were starved from serum for 4 h and subsequently treated with 100 ng/mL NGF (Alomone Labs, cat# N-100) or 500 nM of each compound for 30 min. Cells were then lysed in Pierce™ IP Lysis Buffer (Thermo Fischer Scientific, cat# 87787) containing proteases (Sigma-Aldrich, cat# 539131) and phosphatase inhibitors (Millipore, cat# 524629). Lysates were then immunoprecipitated overnight at 4°C with TrkA antibody (1:100, Millipore, cat# 06-574) followed by 4 h incubation with protein G-plus agarose beads (Santa Cruz Biotechnology, cat# sc-2002). Beads were then collected, washed three times with lysis buffer, resuspended in SDS loading buffer, and subjected to Western blot against phosphorylated Tyrosine (1:1000, R&D systems, cat# BAM1676). […]

Erk1/2 = Erk1/2 phosphorylation in PC12 cells (Western blot); assay type: cell-based; conditions: compound 500 nM, 30 min, NGF 100 ng/mL as control
PC12 cells = assay: CellTox assay, survival of PC12 cells under serum deprivation; assay type: cell-based; conditions: compound 500 nM, 24 h, after 4 h serum starvation; NGF 100 ng/mL as control (Figure 9)
Experimental: as §2
CellTox assay (G8742, Promega, Leiden, Belgium) was used to assess the survival of PC12 cells under serum deprivation conditions. PC12 cells were plated in 96-well plates, starved from serum for 4 h, and subsequently treated with NGF (100 ng/mL) or compound (500 nM) for 24 h. CellTox assay reagents and Hoescht (1:10,000, H3570, Invitrogen, Massachusetts, USA) were then added to each well for 30 min, and then, cells were imaged with a Zeiss AXIO Vert A1 fluorescent microscope. CellTox positive cells were normalized to the total number of cells for each image.
Initially, we tested compounds ENT-A002, ENT-A007, ENT-A009, ENTA025, ENT-A026, ENT-A033, ENT-A034, ENT-A035, ENT-A036, ENT-A037, ENT-A046, ENT-A047, ENT-A055, and ENT-A056 for their ability to protect PC12 cells from serum deprivation-induced cell death as well as for their ability to activate TrkA downstream pro-survival signaling kinases Akt and Erk1/2 (Figures 9A–C). We opted to employ PC12 cells, which express receptors TrkA and p75 and have been routinely used for investigating NGF-TrkA signaling. PC12 cells were subjected to a period of nutrient deprivation (without fetal bovine serum and horse serum in their culture medium) for 4 h. Following this, NGF (100 ng/mL) or one of the compounds (500 nM or 1 μM) was administered and allowed to interact with the cells for 24 h. Following that, CellTox and Hoescht dyes were added and cells were imaged to assess cell death. Control cases involved cells cultured in full medium (serum), cells under starvation conditions (serum-free), and cells under starvation conditions treated with DMSO (SF+DMSO).

T1 sequence (P11712 whole entry): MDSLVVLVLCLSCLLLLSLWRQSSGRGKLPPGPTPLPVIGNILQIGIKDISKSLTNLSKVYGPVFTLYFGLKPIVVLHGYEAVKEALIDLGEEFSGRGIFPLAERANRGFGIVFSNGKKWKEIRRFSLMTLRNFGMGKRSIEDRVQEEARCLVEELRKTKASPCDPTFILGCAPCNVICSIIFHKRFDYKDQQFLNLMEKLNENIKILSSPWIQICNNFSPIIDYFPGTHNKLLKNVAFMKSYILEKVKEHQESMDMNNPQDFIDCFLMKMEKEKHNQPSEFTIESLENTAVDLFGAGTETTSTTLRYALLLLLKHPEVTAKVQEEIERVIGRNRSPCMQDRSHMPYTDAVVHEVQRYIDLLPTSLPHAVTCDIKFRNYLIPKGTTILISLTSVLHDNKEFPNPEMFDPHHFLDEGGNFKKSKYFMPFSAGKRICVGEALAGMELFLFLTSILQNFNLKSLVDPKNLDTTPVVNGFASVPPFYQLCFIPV
T3 sequence (P35739 33-799): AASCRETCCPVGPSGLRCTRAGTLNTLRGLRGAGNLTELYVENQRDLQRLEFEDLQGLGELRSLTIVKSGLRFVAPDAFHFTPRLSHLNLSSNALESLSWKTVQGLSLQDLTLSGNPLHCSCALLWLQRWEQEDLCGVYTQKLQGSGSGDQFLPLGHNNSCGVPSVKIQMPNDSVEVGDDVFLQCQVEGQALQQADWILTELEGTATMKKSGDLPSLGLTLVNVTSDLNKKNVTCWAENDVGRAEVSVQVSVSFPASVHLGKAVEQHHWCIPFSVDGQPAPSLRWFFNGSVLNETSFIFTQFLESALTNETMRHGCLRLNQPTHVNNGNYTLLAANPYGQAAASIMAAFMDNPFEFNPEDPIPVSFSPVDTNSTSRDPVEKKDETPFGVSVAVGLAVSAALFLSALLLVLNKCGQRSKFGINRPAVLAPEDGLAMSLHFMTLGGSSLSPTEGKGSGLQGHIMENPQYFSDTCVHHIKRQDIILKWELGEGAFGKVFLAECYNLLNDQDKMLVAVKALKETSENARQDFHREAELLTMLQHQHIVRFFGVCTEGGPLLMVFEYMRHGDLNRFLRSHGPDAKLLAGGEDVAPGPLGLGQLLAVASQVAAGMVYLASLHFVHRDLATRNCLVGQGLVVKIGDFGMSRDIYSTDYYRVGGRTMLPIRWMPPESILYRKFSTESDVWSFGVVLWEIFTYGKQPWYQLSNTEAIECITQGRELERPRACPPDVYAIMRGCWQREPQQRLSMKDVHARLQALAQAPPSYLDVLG
T2 sequence (P15209 32-821): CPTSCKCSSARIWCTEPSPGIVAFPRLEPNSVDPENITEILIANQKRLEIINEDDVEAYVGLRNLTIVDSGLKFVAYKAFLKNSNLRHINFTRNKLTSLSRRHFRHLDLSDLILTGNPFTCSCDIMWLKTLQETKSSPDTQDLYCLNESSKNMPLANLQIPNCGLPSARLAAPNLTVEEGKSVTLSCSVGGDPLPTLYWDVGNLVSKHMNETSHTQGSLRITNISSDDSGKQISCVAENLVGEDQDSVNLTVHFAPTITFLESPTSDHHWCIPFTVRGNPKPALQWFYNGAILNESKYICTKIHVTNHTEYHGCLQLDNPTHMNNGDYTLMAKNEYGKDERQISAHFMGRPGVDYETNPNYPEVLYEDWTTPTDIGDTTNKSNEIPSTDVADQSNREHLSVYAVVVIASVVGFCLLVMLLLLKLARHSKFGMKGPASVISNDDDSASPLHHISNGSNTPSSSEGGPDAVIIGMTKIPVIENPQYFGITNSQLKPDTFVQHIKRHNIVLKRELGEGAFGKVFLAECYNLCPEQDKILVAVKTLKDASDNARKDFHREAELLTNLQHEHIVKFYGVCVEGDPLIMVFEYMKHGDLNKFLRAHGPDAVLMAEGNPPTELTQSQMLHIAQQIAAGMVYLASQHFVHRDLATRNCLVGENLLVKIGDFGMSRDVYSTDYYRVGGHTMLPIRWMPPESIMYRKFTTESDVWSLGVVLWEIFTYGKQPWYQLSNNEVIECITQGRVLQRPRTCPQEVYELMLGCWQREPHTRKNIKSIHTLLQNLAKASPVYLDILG

SMILES	elimination constant (Kel) [1] [h⁻¹]	inhibition for CYP2C9 (CYP2C9)	protection of NIH-3T3-TrkB cells from serum deprivation-induced cell death (CellTox) [2]	phosphorylation levels of the TrkB receptor (TrkB)	residual of time zero ([3]; pooled human liver microsomes 0.5 mg/mL, t = 60 min, NADPH) [%]	parent structure loss (depletion) class ([3]; pooled human liver microsomes, 60 min)	TrkA phosphorylation (TrkA)	Erk1/2 phosphorylation (Erk1/2)	protection of PC12 cells from serum deprivation-induced cell death (CellTox) (PC12 cells)
CC12CCC(O)CC1=CCC1C2CCC2(C)C1CCC21OC1CO (stereo not shown) [BNN27]	0.465								
CC12CCC(O)CC1=CCC1C2CCC2(C)C1CCC21CC=C(C=CC#N)CO1 [ENT-A009, (E)-(3S,17R)-3-hydroxy-3′,6′-dihydrospiro[5-androstene-17,2′-pyran]-5′-acrylonitrile]		moderate-to-strong inhibition	significantly reduce cell death levels compared to the serum-free control, comparable to the BDNF action	successfully increased phosphorylation levels of the TrkB receptor compared to the untreated control					
CC12CCC(O)CC1=CCC1C2CCC2(C)C1CCC21CC=C(CCl)CO1 [ENT-A025, (3S,17R)-5′-(chloromethyl)-3′,6′-dihydrospiro[5-androstene-17,2′-pyran]-3-ol]			cannot protect NIH3T3-TrkB cells from serum deprivation		92	slow (slow (5–19%))	strongly induce TrkA and Erk1/2 phosphorylation, comparable to NGF action	strongly induce TrkA and Erk1/2 phosphorylation, comparable to NGF action	protect PC12 cells against serum deprivation-induced cell death
